In patent US20250092016A1, “COMPOUNDS AND COMPOSITIONS FOR THE TREATMENT OF CORONAVIRAL RELATED DISEASES” (priority 2021, published 2025):
Like-named read-outs stand apart in the source and are kept apart here.

Biological target: SARS-CoV-2 main protease (M^pro) (Severe acute respiratory syndrome coronavirus 2, UniProt P0DTD1)
Experiment: Rapid-Fire MS Biochemical Assay measuring Mpro activity (5 nM Mpro)
Conditions: Mpro inhibition, 5 μM substrate peptide, 120 min
[1] = Table 1B, read-out: Rapid-Fire Assay IC50

Row | Compound | IC50 [1] | IC50 (Rapid-Fire Assay IC50, Table 1B)
1 | Cc1ccc(C(F)(F)F)nc1N1C[C@@H](C#N)N(c2cncc3ccccc23)C1=O (single isomer, unassigned) [Compound 82b] | > 1000 nM | 
2 | COc1ccc(C(F)(F)F)nc1N1C[C@H](C#N)N(c2cncc3ccccc23)C1=O (single isomer, unassigned) [Compound 47a] | 20 to 200 nM | 
3 | Cc1cc(N2C[C@@H](C#N)N(c3cncc4ccccc34)C2=O)cc(C)n1 (single isomer, unassigned) [Compound 102b] | 200 to 1000 nM | 
4 | N#C[C@H]1CN(C2CN(S(=O)(=O)C3CC3)C2)C(=O)N1c1cncc2ccccc12 (single isomer, unassigned) [Compound 131a] |  | 20 to 200 nM
5 | C[C@H]1[C@@H](C#N)N(c2cncc3ccccc23)C(=O)N1c1cccc(Cl)c1 (single isomer, unassigned) [Compound 43b] | 200 to 1000 nM | 
6 | N#C[C@H]1CN(c2cnc(C(F)(F)F)nc2)C(=O)N1c1cncc2ccccc12 (single isomer, unassigned) [Compound 93a] | < 20 nM | 
7 | CC(C)[C@H]1C[C@@H](N2C[C@@H](C#N)N(c3cncc4ccccc34)C2=O)C1 [Compound 123c, (S)-1-((1s,3R)-3-isopropylcyclobutyl)-3-(isoquinolin-4-yl)-2-oxoimidazolidine-4-carbonitrile] | > 1000 nM | 
8 | N#C[C@@H]1CN([C@@H]2CCN(C(=O)CO)C2)C(=O)N1c1cncc2ccccc12 (single isomer, unassigned) [Compound 25b] | > 1000 nM | 
9 | Cc1ccc(C(F)(F)F)cc1N1C[C@@H](C#N)N(c2cncc3ccccc23)C1=O (single isomer, unassigned) [Compound 24b] | > 1000 nM | 
10 | Cc1c[nH]c(N2CC(C#N)N(c3cncc4ccccc34)C2=O)n1 (racemic) [Compound 118, 3-(isoquinolin-4-yl)-1-(4-methyl-1 H-imidazol-2-yl)-2-oxoimidazolidine-4-carbonitrile] | 200 to 1000 nM | 
11 | N#CC1CN(C2CCC(F)CC2)C(=O)N1c1cncc2ccccc12 (single isomer, unassigned) [Compound 121d] | > 1000 nM | 
12 | N#CC1CN(C2CN(CC(F)(F)F)C2)C(=O)N1c1cncc2ccccc12 (racemic) [Compound 133, 3-(isoquinolin-4-yl)-2-oxo-1-(1-(2,2,2-trifluoroethyl)azetidin-3-yl)imidazolidine-4-carbonitrile] | < 20 nM | 
13 | N#CC1CN(c2nc(Cl)c[nH]2)C(=O)N1c1cncc2ccccc12 (racemic) [Compound 119, 1-(4-chloro-1H-imidazol-2-yl)-3-(isoquinolin-4-yl)-2-oxoimidazolidine-4-carbonitrile] | 20 to 200 nM | 
14 | CC(C)[C@H]1C[C@@H](N2C[C@H](C#N)N(c3cncc4ccccc34)C2=O)C1 [Compound 123a, (R)-1-((1s,3S)-3-isopropylcyclobutyl)-3-(isoquinolin-4-yl)-2-oxoimidazolidine-4-carbonitrile] | < 20 nM | 
15 | COc1nc(C(F)(F)F)ccc1N1C[C@@H](C#N)N(c2cncc3ccccc23)C1=O (single isomer, unassigned) [Compound 95b] | > 1000 nM | 
16 | N#C[C@H]1CN([C@@H]2CCN(CCO)C2)C(=O)N1c1cncc2ccccc12 (single isomer, unassigned) [Compound 46a] | > 1000 nM | 
17 | N#C[C@H]1CN(c2cccc(F)c2)C(=O)N1c1cncc2ccccc12 (single isomer, unassigned) [Compound 76a] | < 20 nM | 
18 | N#Cc1cccc(N2C[C@H](C#N)N(c3cncc4ccccc34)C2=O)c1 (single isomer, unassigned) [Compound 52a] | < 20 nM | 
19 | N#C[C@@H]1CN(c2ccc(F)c(Cl)c2)C(=O)N1c1cncc2ccccc12 (single isomer, unassigned) [Compound 87b] | > 1000 nM | 
20 | CC(C)[C@H]1C[C@H](N2C[C@H](C#N)N(c3cncc4ccccc34)C2=O)C1 [Compound 123b, (R)-1-((1r,3R)-3-isopropylcyclobutyl)-3-(isoquinolin-4-yl)-2-oxoimidazolidine-4-carbonitrile] | < 20 nM | 
21 | N#C[C@H]1CN(c2cccc(C(F)F)c2)C(=O)N1c1cncc2ccccc12 (single isomer, unassigned) [Compound 22a] | < 20 nM | 
22 | N#C[C@H]1CN(c2cnnc(C(F)(F)F)c2)C(=O)N1c1cncc2ccccc12 (single isomer, unassigned) [Compound 13a] | < 20 nM | 
23 | N#C[C@H]1CN(c2cc(F)cc(F)c2)C(=O)N1c1cncc2ccccc12 (single isomer, unassigned) [Compound 110a] | < 20 nM | 
24 | N#C[C@H]1CN(c2ccc(F)nc2)C(=O)N1c1cncc2ccccc12 (single isomer, unassigned) [Compound 55a] | 20 to 200 nM | 
25 | N#C[C@H]1CN(C2CCC(F)(F)CC2)C(=O)N1c1cncc2ccccc12 (single isomer, unassigned) [Compound 138a] | < 20 nM | 
26 | COc1cc(Cl)ccc1N1CC(C#N)N(c2cncc3ccccc23)C1=O (racemic) [Compound 103, 1-(4-chloro-2-methoxyphenyl)-3-(isoquinolin-4-yl)-2-oxoimidazolidine-4-carbonitrile] | 20 to 200 nM | 

Row | Compound | IC50 [1] | IC50 (Rapid-Fire Assay IC50, Table 1B)
27 | COc1cc(Cl)cnc1N1C[C@@H](C#N)N(c2cncc3ccccc23)C1=O (single isomer, unassigned) [Compound 58b] | > 1000 nM | 
28 | CS(=O)(=O)c1ccc2cncc(N3C(=O)N(c4ccc(F)c(F)c4)C[C@@H]3C#N)c2c1 (single isomer, unassigned) [Compound 85a] | < 20 nM | 
29 | N#C[C@H]1CN(c2ncc(C(F)(F)F)[nH]2)C(=O)N1c1cncc2ccccc12 (single isomer, unassigned) [Compound 68a] | 20 to 200 nM | 
30 | N#C[C@H]1CN(c2ccc(C(F)F)cc2)C(=O)N1c1cncc2ccccc12 (single isomer, unassigned) [Compound 108a] | < 20 nM | 
31 | N#C[C@@H]1CN(C23CC(F)(C2)C3)C(=O)N1c1cncc2ccccc12 (single isomer, unassigned) [Compound 139b] | > 1000 nM | 
32 | N#C[C@@H]1CN(c2ncc(C(F)(F)F)cn2)C(=O)N1c1cncc2ccccc12 (single isomer, unassigned) [Compound 42b] | > 1000 nM | 
33 | N#C[C@@H]1CN(c2cccc(OC(F)(F)F)c2)C(=O)N1c1cncc2ccccc12 (single isomer, unassigned) [Compound 92b] | 200 to 1000 nM | 
34 | N#C[C@H]1CN(c2ccc(F)cc2F)C(=O)N1c1cncc2ccccc12 (single isomer, unassigned) [Compound 66a] | < 20 nM | 
35 | COc1ccc(C#N)cc1N1CC(C#N)N(c2cncc3ccccc23)C1=O (racemic) [Compound 15, 1-(5-cyano-2-methoxyphenyl)-3-(isoquinolin-4-yl)-2-oxoimidazolidine-4-carbonitrile] | < 20 nM | 
36 | N#C[C@H]1CN([C@@H]2CCN(CCC(F)(F)F)C2)C(=O)N1c1cncc2ccccc12 (single isomer, unassigned) [Compound 26a] | 200 to 1000 nM | 
37 | COCCNC(=O)c1ccc2cncc(N3C(=O)N(c4cccc(Cl)c4)CC3C#N)c2c1 (stereo not drawn) [Compound 36, 4-(3-(3-chlorophenyl)-5-cyano-2-oxoimidazolidin-1-yl)-N-(2-methoxyethyl)isoquinoline-6-carboxamide] | 20 to 200 nM | 
38 | COc1ccc(C(F)(F)F)nc1N1C[C@@H](C#N)N(c2cncc3ccccc23)C1=O (single isomer, unassigned) [Compound 47b] | > 1000 nM | 
39 | COc1ncc(C(F)(F)F)cc1N1C[C@@H](C#N)N(c2cncc3ccccc23)C1=O (single isomer, unassigned) [Compound 100b] | 200 to 1000 nM | 
40 | N#C[C@H]1CN(c2ncc(Cl)cn2)C(=O)N1c1cncc2ccccc12 (single isomer, unassigned) [Compound 16a] | < 20 nM | 
41 | N#C[C@@H]1CN([C@H]2CCC(F)(F)C2)C(=O)N1c1cncc2ccccc12 (single isomer, unassigned) [Compound 141b, (S)-1-((S)-3,3-difluorocyclopentyl)-3-(isoquinolin-4-yl)-2-oxoimidazolidine-4-carbonitrile or (S)-1-((R)-3,3-difluorocyclopentyl)-3-(isoquinolin-4-yl)-2-oxoimidazolidine-4-carbonitrile] | > 1000 nM | 
42 | Cc1ccc(C#N)c(N2CC(C#N)N(c3cncc4ccccc34)C2=O)c1 (racemic) [Compound 116, 1-(2-cyano-5-methylphenyl)-3-(isoquinolin-4-yl)-2-oxoimidazolidine-4-carbonitrile] | < 20 nM | 
43 | N#C[C@@H]1CN(c2cccc(F)c2)C(=O)N1c1cncc2ccccc12 (single isomer, unassigned) [Compound 76b] | > 1000 nM | 
44 | N#C[C@@H]1CN(c2nccc(C(F)(F)F)n2)C(=O)N1c1cncc2ccccc12 (single isomer, unassigned) [Compound 49b] | > 1000 nM | 
45 | N#Cc1ccc(Cl)cc1N1C[C@@H](C#N)N(c2cncc3ccccc23)C1=O (single isomer, unassigned) [Compound 20b] | > 1000 nM | 
46 | N#C[C@H]1CN(C2CC(C(F)(F)F)C2)C(=O)N1c1cncc2ccccc12 (mixture of isomers) [Compound 45, (R)-3-(isoquinolin-4-yl)-2-oxo-1-(3-(trifluoromethyl)cyclobutyl)imidazolidine-4-carbonitrile] | > 1000 nM | 
47 | N#C[C@@H]1CN(C2CN(C3CC3)C2)C(=O)N1c1cncc2ccccc12 (single isomer, unassigned) [Compound 136b] | > 1000 nM | 
48 | N#C[C@@H]1CN(c2cccc(Cl)n2)C(=O)N1c1cncc2ccccc12 (single isomer, unassigned) [Compound 111b] | 200 to 1000 nM | 
49 | N#CC1CN(c2cccc(C(F)(F)F)c2)C(=O)N1c1cncc2ccccc12 (racemic) [Compound 106, 3-(isoquinolin-4-yl)-2-oxo-1-(3-(trifluoromethyl)phenyl)imidazolidine-4-carbonitrile] | > 1000 nM | 
50 | N#C[C@@H]1CN([C@@H]2CCN(CCO)C2)C(=O)N1c1cncc2ccccc12 (single isomer, unassigned) [Compound 46b] | > 1000 nM | 
51 | N#Cc1ccc(Cl)cc1N1CC(C#N)N(c2cncc3ccccc23)C1=O (racemic) [Compound 20, 1-(5-chloro-2-cyanophenyl)-3-(isoquinolin-4-yl)-2-oxoimidazolidine-4-carbonitrile] | < 20 nM | 
